Results as given in the COVID Moonshot data (paper PMC7615835).
Several values for one entry are separate records, joined by “and”; a condition that tells them apart may be missing. Equal entries are not always repeated.

Columns and labels:
[1] = target: SARS-CoV-2 Main Protease (SARS-CoV-2) (UniProt P0DTD1)
[2] = in vivo, iv, 0.5 mg/kg

Compound	IC50 [1]	AUC(0-inf) ([2]; rat)	AUC(0-t) ([2]; rat)	C0 ([2]; rat)	MRT inf ([2]; rat)	MRT last ([2]; rat)	Vd ([2]; rat)	clearance ([2]; rat)	half-life ([2]; rat)	CC50 (a549) [µM]	also measured
CS(=O)(=O)N1Cc2ccc(Cl)cc2C(C(=O)Nc2cncc3c2CCCC3)C1 (stereo unspecified)	0.642 µM	196 ng·h/mL and 264 ng·h/mL	195 ng·h/mL and 262 ng·h/mL	541 ng/mL and 625 ng/mL	35.6 min and 31 min	29.8 min and 34 min	1.32 L/kg and 1.14 L/kg	42.5 mL/min/kg and 33 mL/min/kg	30.6 min and 25.6 min	–	–
CS(=O)(=O)c1ccc2cncc(NC(=O)C3CNC(=O)c4ccc(Cl)cc43)c2c1 (stereo unspecified)	2.74 µM	177 ng·h/mL and 160 ng·h/mL	175 ng·h/mL and 157 ng·h/mL	636 ng/mL and 540 ng/mL	25.6 min and 22 min	20.7 min and 22.8 min	1.08 L/kg and 1.38 L/kg	49 mL/min/kg and 54.2 mL/min/kg	19.3 min and 23.4 min	–	–
CS(=O)(=O)N1Cc2ccc(Cl)cc2C(C(=O)Nc2cncc3ccccc23)C1 (stereo unspecified)	–	–	–	–	–	–	–	–	–	–	AUC(0-inf) ([2]; mouse): 125 ng·h/mL and 139 ng·h/mL; AUC(0-t) ([2]; mouse): 124 ng·h/mL and 138 ng·h/mL; C0 ([2]; mouse): 399 ng/mL and 588 ng/mL; MRT inf ([2]; mouse): 21.6 min and 18.2 min; MRT last ([2]; mouse): 20.8 min and 17.6 min; Vd ([2]; mouse): 1.4 L/kg and 1.06 L/kg; clearance ([2]; mouse): 64.9 mL/min/kg and 59 mL/min/kg; half-life ([2]; mouse): 16.7 min
N#Cc1ncc(NC(=O)Cc2cccc(Cl)c2)c2ccccc12	65.9 µM	242 ng·h/mL and 224 ng·h/mL	241 ng·h/mL and 222 ng·h/mL	809 ng/mL and 728 ng/mL	28.6 min and 29.3 min	28.2 min and 26.5 min	1.17 L/kg and 1.23 L/kg	39.9 mL/min/kg and 43.2 mL/min/kg	35.3 min and 42.1 min	–	–
CNC(=O)N1Cc2ccc(Cl)cc2C(C(=O)Nc2cncc3ccccc23)C1 (stereo unspecified)	0.272 µM	–	–	–	–	–	–	–	–	–	AUC(0-inf) ([2]; mouse): 97.6 ng·h/mL and 117 ng·h/mL; AUC(0-t) ([2]; mouse): 94.9 ng·h/mL and 115 ng·h/mL; C0 ([2]; mouse): 328 ng/mL and 570 ng/mL; MRT inf ([2]; mouse): 16.4 min and 13.4 min; MRT last ([2]; mouse): 14.7 min and 12.5 min; Vd ([2]; mouse): 1.32 L/kg and 0.896 L/kg; clearance ([2]; mouse): 80.4 mL/min/kg and 68.2 mL/min/kg; half-life ([2]; mouse): 11.5 min and 9.96 min
O=C(Cc1cccc(Cl)c1)Nc1cnn2ccccc12	11.3 µM	209 ng·h/mL and 179 ng·h/mL	201 ng·h/mL and 176 ng·h/mL	652 ng/mL and 621 ng/mL	31.1 min	25.4 min and 27.5 min	1.24 L/kg and 1.44 L/kg	39.8 mL/min/kg and 46.6 mL/min/kg	29.4 min and 33.7 min	–	–
Cc1cc2c(NC(=O)C3CCOc4ccc(Cl)cc43)cncc2s1 (stereo unspecified)	0.228 µM	122 ng·h/mL and 130 ng·h/mL	118 ng·h/mL and 128 ng·h/mL	342 ng/mL and 378 ng/mL	26.3 min and 28.9 min	25.1 min and 24.1 min	1.76 L/kg and 1.52 L/kg	60.8 mL/min/kg and 58 mL/min/kg	22.4 min and 25 min	–	–
O=C(Cc1cccc(Cl)c1)Nc1c[nH]c(=O)c2ccccc12	> 99.5 µM	200 ng·h/mL and 464 ng·h/mL	192 ng·h/mL and 458 ng·h/mL	496 ng/mL and 718 ng/mL	42.7 min and 34.1 min	29.2 min and 40.5 min	1.42 L/kg and 0.802 L/kg	41.6 mL/min/kg and 19.6 mL/min/kg	26.2 min and 25.4 min	–	–
CN(C)C(=O)CC1(C(=O)Nc2cncc3ccccc23)CCOc2ccc(Cl)cc21 (stereo unspecified)	2.92 µM	–	–	–	–	–	–	–	–	> 9.99	–
CC(C)(C)c1ccc(N(C(=O)c2cocn2)C(C(=O)NCC2CCCO2)c2cccnc2)cc1 (stereo unspecified)	5.15 µM	–	–	–	–	–	–	–	–	–	CC50 (vero): > 10 µM
O=C(Cc1cccc(Cl)c1)Nc1cncc2cc(F)ccc12	1.47 µM	–	–	–	–	–	–	–	–	> 9.99	–
CC1CN(S(C)(=O)=O)CCC1NC(=O)CC1(C(=O)Nc2cncc3ccccc23)CCOc2ccc(Cl)cc21 (stereo unspecified)	2.79 µM	–	–	–	–	–	–	–	–	> 9.99	–
COC(=O)C1(NC(=O)C(c2cccnc2)N(C(=O)c2cocn2)c2ccc(C(C)(C)C)cc2)CCCC1 (stereo unspecified)	5.26 µM	–	–	–	–	–	–	–	–	–	CC50 (vero): > 10 µM
CC1(C(=O)Nc2cncc3ccc(S(C)(=O)=O)cc23)CNC(=O)c2ccc(Cl)cc21 (stereo unspecified)	6.62 µM	304 ng·h/mL and 309 ng·h/mL	292 ng·h/mL and 303 ng·h/mL	660 ng/mL and 636 ng/mL	38.1 min and 34.1 min	29.1 min and 35 min	1.08 L/kg and 1.19 L/kg	31.8 mL/min/kg and 32.2 mL/min/kg	26.9 min and 30.5 min	–	–
COC(=O)N1Cc2ccc(Cl)cc2C(C(=O)Nc2cncc3ccccc23)C1 (stereo unspecified)	0.224 µM	152 ng·h/mL and 94.2 ng·h/mL	150 ng·h/mL and 93.6 ng·h/mL	411 ng/mL and 345 ng/mL	20.4 min and 24.1 min	22.5 min and 19.4 min	1.32 L/kg and 1.82 L/kg	54.9 mL/min/kg and 88.6 mL/min/kg	20 min and 18.2 min	–	–
O=C(Cc1cccc(Cl)c1)Nc1cncc2cc[nH]c12	1.9 µM	129 ng·h/mL and 176 ng·h/mL and 114 ng·h/mL	128 ng·h/mL and 172 ng·h/mL and 113 ng·h/mL	320 ng/mL and 470 ng/mL and 344 ng/mL	29.9 min and 38.2 min and 23 min	35.3 min and 27 min and 21.6 min	2.47 L/kg and 1.46 L/kg and 2.1 L/kg	64.5 mL/min/kg and 48.4 mL/min/kg and 91.1 mL/min/kg	42.8 min and 22.7 min and 19.5 min	–	–
N#Cc1ccc2cncc(NC(=O)C3CCOc4ccc(Cl)cc43)c2c1 (stereo unspecified)	–	–	–	–	–	–	–	–	–	> 10	–
Cc1nc2n(n1)CC(C(=O)NC(C)(C(=O)Nc1cncc3ccccc13)c1ccc(Cl)c(Cl)c1)CC2 (stereo unspecified)	3.44 µM and 6.76 µM	–	–	–	–	–	–	–	–	> 9.99	–
CC(C)(C)c1ccc(N(C(=O)c2cocn2)C(C(=O)NC2COC2)c2cccnc2)cc1 (stereo unspecified)	4.07 µM	–	–	–	–	–	–	–	–	–	CC50 (vero): > 10 µM
O=C(Nc1cncc2ccccc12)C1CN(S(=O)(=O)C2CC2)Cc2ccc(Cl)cc21 (stereo unspecified)	0.31 µM	–	–	–	–	–	–	–	–	–	AUC(0-inf) ([2]; mouse): 112 ng·h/mL and 120 ng·h/mL; AUC(0-t) ([2]; mouse): 109 ng·h/mL and 116 ng·h/mL; C0 ([2]; mouse): 314 ng/mL and 396 ng/mL; MRT inf ([2]; mouse): 17.5 min and 18 min; MRT last ([2]; mouse): 16 min and 15.5 min; Vd ([2]; mouse): 1.3 L/kg and 1.25 L/kg; clearance ([2]; mouse): 74.5 mL/min/kg and 69.4 mL/min/kg; half-life ([2]; mouse): 10.7 min and 12.7 min
CS(=O)(=O)c1ccc2cncc(NC(=O)C3CCOc4cc(F)c(Cl)cc43)c2c1 (stereo unspecified)	1.89 µM and 1.27 µM	–	–	–	–	–	–	–	–	> 9.99	–
O=C(Nc1cncc2ccccc12)C(NC(=O)[C@@H]1CCCO1)c1cccc(Cl)c1 (stereo in doubt)	2.29 µM	–	–	–	–	–	–	–	–	> 9.99	–
O=C(Cc1cc(F)cc(Cl)c1)Nc1cncc2ccccc12	0.368 µM and 0.398 µM	–	–	–	–	–	–	–	–	> 9.99	–
O=C(Nc1cncc2ccccc12)C(O)c1ccc(Cl)c(Cl)c1 (stereo unspecified)	2.01 µM	–	–	–	–	–	–	–	–	> 9.99	–
O=C(Nc1cncc2ccccc12)C1CCN(Cc2ccn[nH]2)c2ccc(Cl)cc21 (stereo unspecified)	0.803 µM	–	–	–	–	–	–	–	–	> 9.99	–
Cc1c(N)cncc1NC(=O)Cc1cccc(Cl)c1	4.22 µM	210 ng·h/mL and 187 ng·h/mL	209 ng·h/mL and 185 ng·h/mL	485 ng/mL and 446 ng/mL	28.8 min and 30.5 min	29.5 min and 27.3 min	1.21 L/kg and 1.28 L/kg	39.8 mL/min/kg and 44.6 mL/min/kg	28.2 min and 25 min	–	–
NC(=O)c1cc2c(NC(=O)C3CCOc4ccc(Cl)cc43)cncc2s1 (stereo unspecified)	0.761 µM	488 ng·h/mL and 612 ng·h/mL	485 ng·h/mL and 604 ng·h/mL	706 ng/mL and 898 ng/mL	77.4 min and 69 min	65.4 min and 70.2 min	1.18 L/kg and 1.06 L/kg	17.1 mL/min/kg and 13.7 mL/min/kg	75 min and 84 min	–	–
Cc1cccc2cncc(NC(=O)Cc3cccc(Cl)c3)c12	0.331 µM	206 ng·h/mL and 112 ng·h/mL	203 ng·h/mL and 111 ng·h/mL	934 ng/mL and 490 ng/mL	21.8 min and 18.2 min	16.2 min and 19.9 min	0.737 L/kg and 1.83 L/kg	40.4 mL/min/kg and 84.8 mL/min/kg	24.9 min and 34.8 min	–	–
COC(=O)[C@@H]1C[C@@H](NC(=O)C(c2cccnc2)N(C(=O)c2cocn2)c2ccc(C(C)(C)C)cc2)CN1C(=O)OC(C)(C)C (stereo in doubt)	6.82 µM	–	–	–	–	–	–	–	–	–	CC50 (vero): > 10 µM
